*1 amine or outer side, *2 acyl side, *3 side chain or, on linkers, in order; H or OH if unused. Where a SMILES comes first, the peptide text is derived from it. Bridges are numbered along the chain shown (N, C = ends). [ ]: non-standard residue; d: D form. The star is where a group is joined. hPhe(3,5-F2-4-CF3) = N[C@@H](CCc1cc(F)c(C(F)(F)F)c(F)c1)C(=O)O; X47 = CC(C)(C)CCN([C@@H](Cc1ccc(C(F)(F)F)cc1)C(=O)[*:2])[*:1]; hPhe(3-Cl-4-CF3) = N[C@@H](CCc1ccc(C(F)(F)F)c(Cl)c1)C(=O)O; NPrPhe(4-CF3) = CCCN[C@@H](Cc1ccc(C(F)(F)F)cc1)C(=O)O; NPrPhe(4-Me) = CCCN[C@@H](Cc1ccc(C)cc1)C(=O)O; Abu(4,4,4-F3) = N[C@@H](CC(F)(F)F)C(=O)O; NMeGly(cPent) = CN[C@H](C(=O)O)C1CCCC1; NMeD = CN[C@@H](CC(=O)O)C(=O)O; NMeL = CN[C@@H](CC(C)C)C(=O)O; hPip = O=C(O)[C@@H]1CCCCCN1; Pip = O=C(O)[C@@H]1CCCCN1; αMeS = C[C@](N)(CO)C(=O)O; Morpholide = C1CN(*)CCO1; NMeA = CN[C@@H](C)C(=O)O; Ac5c = NC1(C(=O)O)CCCC1; Aze = O=C(O)[C@@H]1CCN1; Abu = CC[C@H](N)C(=O)O; Sar = CNCC(=O)O; Allyl = C=CC*
Columns and labels:
[1] = tested on: human lung cancer strain NCI-H441;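 also: cell proliferation inhibition after four days measured by CellTiter-Glo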
[2] = target: GDP-bound NRAS wild-type protein (Homo sapiens, UniProt P01111); test: Binding to NRAS by surface plasmon resonance (SPR), Single Cycle Kinetics; settings: SPR, GDP-bound NRAS wild-type protein vs GDP-bound KRAS wild-type protein
[3] = target: GDP-bound HRAS wild-type protein (Homo sapiens, UniProt P01112); test: Binding to HRAS by surface plasmon resonance (SPR), Single Cycle Kinetics; settings: SPR, GDP-bound HRAS wild-type protein vs GDP-bound KRAS wild-type protein
Chain of GDP-bound HRAS wild-type protein (P01112 whole entry): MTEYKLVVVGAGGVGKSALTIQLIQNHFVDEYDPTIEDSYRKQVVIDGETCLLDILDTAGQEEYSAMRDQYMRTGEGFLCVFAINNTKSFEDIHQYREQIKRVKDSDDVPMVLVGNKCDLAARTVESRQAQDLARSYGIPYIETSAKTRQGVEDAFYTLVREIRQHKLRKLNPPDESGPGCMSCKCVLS

Chain of GDP-bound NRAS wild-type protein (P01111 whole entry): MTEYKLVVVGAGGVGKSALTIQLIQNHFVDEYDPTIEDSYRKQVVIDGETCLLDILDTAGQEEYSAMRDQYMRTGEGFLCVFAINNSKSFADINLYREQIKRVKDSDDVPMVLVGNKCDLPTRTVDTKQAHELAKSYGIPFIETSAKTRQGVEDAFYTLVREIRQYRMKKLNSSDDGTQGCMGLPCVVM

| SMILES | IC50 [1] [nM] | NRAS/KRAS (ratio of KD value for NRAS to KD value for KRAS) [2] | HRAS/KRAS (ratio of KD value for HRAS to KD value for KRAS) [3] | NRAS/KRAS (ratio of KD value with respect to NRAS to KD value with respect to KRAS) [2] | HRAS/KRAS (ratio of KD value with respect to HRAS to KD value with respect to KRAS) [3] | NRAS/KRAS (ratio of KD value for NRAS to KD value for KRAS) ([2]; KD ratio class) | HRAS/KRAS (ratio of KD value for HRAS to KD value for KRAS) ([3]; KD ratio class) |
| --- | --- | --- | --- | --- | --- | --- | --- |
| CCCN1C(=O)CN(C)C(=O)CN(C)C(=O)[C@H]([C@@H](C)CC)NC(=O)[C@@H]2COCCCC[C@@](C)(NC(=O)[C@@H]3C[C@@H](OCC)CN3C(=O)[C@H](CCc3cc(F)c(C(F)(F)F)c(F)c3)NC(=O)CN(C)C(=O)[C@@H]1Cc1ccc(C(F)(F)F)cc1)C(=O)N(C)[C@@H](C1CCCC1)C(=O)N(C)[C@H](C(=O)N1CCOCC1)CC(=O)N2C [PP0899] | 923 | A (a compound having 10 or more and less than 20 is denoted as A) | B (a compound having 3 or more and less than 10 is denoted as B) | – | – | – | – |
| C=CCOC[C@]1(C)NC(=O)[C@@H]2CCCN2C(=O)[C@H](CCc2cc(F)c(C(F)(F)F)c(F)c2)NC(=O)CN(C)C(=O)[C@H](Cc2ccc(C(F)(F)F)cc2)N(CCC)C(=O)CN(C)C(=O)CN(C)C(=O)[C@H]([C@@H](C)CC)NC(=O)[C@H](CC(C)C)N(C)C(=O)C[C@@H](C(=O)N2CCOCC2)N(C)C(=O)[C@H](C2CCCC2)N(C)C1=O [PP0763] ([NMeL]I[Sar][Sar][NPrPhe(4-CF3)][Sar][hPhe(3,5-F2-4-CF3)]P[αMeS](Allyl)[NMeGly(cPent)][NMeD]-Morpholide; lactam N-11) | 83 | – | – | B (a compound having 3 or more and less than 10 is denoted as B) | B (a compound having 3 or more and less than 10 is denoted as B) | – | – |
| CCO[C@@H]1C[C@H]2C(=O)NC3(CCC3)C(=O)N(C)[C@@H](C3CCCC3)C(=O)N(C)[C@H](C(=O)N(C)C)CC(=O)N(C)[C@@H](Cc3ccccc3C)C(=O)N[C@@H]([C@@H](C)CC)C(=O)N(C)CC(=O)N(C)[C@H]3CCCCCN(C3=O)[C@@H](Cc3ccc(C(F)(F)F)cc3)C(=O)N(C)CC(=O)N[C@@H](CCc3cc(F)c(C(F)(F)F)c(F)c3)C(=O)N2C1 [PP0941] | 63.9 | B (a compound having 3 or more and less than 10 is denoted as B) | B (a compound having 3 or more and less than 10 is denoted as B) | – | – | – | – |
| CCO[C@@H]1C[C@H]2C(=O)NC3(CCC3)C(=O)N(C)[C@@H](C3CCCC3)C(=O)N(C)[C@H](C(=O)N3CCOCC3)CC(=O)N(C)[C@@H](Cc3cccnc3)C(=O)N[C@@H]([C@@H](C)CC)C(=O)N(C)CC(=O)N(C)[C@H]3CCCCN(C3=O)[C@@H](Cc3ccc(C(F)(F)F)cc3)C(=O)N(C)CC(=O)N[C@@H](CCc3cc(F)c(C(F)(F)F)c(F)c3)C(=O)N2C1 [PP0718] | 42.3 | – | – | C (A compound having a KD ratio of 0.1 or more and less than 3 is denoted as C) | B (a compound having 3 or more and less than 10 is denoted as B) | – | – |
| CCO[C@@H]1C[C@H]2C(=O)NC3(CCC3)C(=O)N(C)[C@@H](C3CCCC3)C(=O)N(C)[C@H](C(=O)N3CCCC3)CC(=O)N(C)[C@@H](CC)C(=O)N[C@@H]([C@@H](C)CC)C(=O)N(C)CC(=O)N(C)[C@H]3C/C=C\CCN(C3=O)[C@@H](CC3CCC(F)(F)CC3)C(=O)N(C)CC(=O)N[C@@H](CCc3cc(F)c(C(F)(F)F)c(F)c3)C(=O)N2C1 [PP1442] | 48.3 | – | – | – | – | A (a compound having 10 or more and less than 20 is denoted as A) | A (a compound having 10 or more and less than 20 is denoted as A) |
| CCCN1C(=O)CN(C)C(=O)CN(C)C(=O)[C@H]([C@@H](C)CC)NC(=O)[C@@H]2CCCCCCC[C@@H](NC(=O)[C@@H]3C[C@@H](OCC)CN3C(=O)[C@H](CCc3cc(F)c(C(F)(F)F)c(F)c3)NC(=O)CN(C)C(=O)[C@@H]1Cc1ccc(C(F)(F)F)cc1)C(=O)N(C)[C@@H](C1CCCC1)C(=O)N(C)[C@H](C(=O)N(C)C)CC(=O)N2C [PP0925] | 91 | A (a compound having 10 or more and less than 20 is denoted as A) | B (a compound having 3 or more and less than 10 is denoted as B) | – | – | – | – |
| CCCN1C(=O)CN(C)C(=O)[C@@H]2CCN2C(=O)[C@H](CC(F)(F)F)NC(=O)[C@H](CC(C)C)N(C)C(=O)C[C@@H](C(=O)N2CCOCC2)N(C)C(=O)[C@H](C2CCCC2)N(C)C(=O)C2(CCCC2)NC(=O)[C@@H]2CCCN2C(=O)[C@H](CCc2ccc(C(F)(F)F)c(Cl)c2)NC(=O)CN(C)C(=O)[C@@H]1Cc1ccc(C(F)(F)F)cc1 [PP0304] ([NMeL][Abu(4,4,4-F3)][Aze][Sar][NPrPhe(4-CF3)][Sar][hPhe(3-Cl-4-CF3)]P[Ac5c][NMeGly(cPent)][NMeD]-Morpholide; lactam N-11) | 112 | B (a compound having 3 or more and less than 10 is denoted as B) | B (a compound having 3 or more and less than 10 is denoted as B) | – | – | – | – |
| CC[C@H](C)[C@@H]1NC(=O)[C@H](CC(C)C)N(C)C(=O)C[C@@H](C(=O)N2CCOCC2)N(C)C(=O)[C@H](C2CCCC2)N(C)C(=O)C2(CCCC2)NC(=O)[C@@H]2CCCN2C(=O)[C@H](CCc2ccc(C(F)(F)F)c(Cl)c2)NC(=O)CN(C)C(=O)[C@H](Cc2ccc(C(F)(F)F)cc2)N(CCC(C)(C)C)C(=O)[C@@H]2CCN2C(=O)[C@H](C)N(C)C1=O [PP0113] ([NMeL]I[NMeA][Aze][X47][Sar][hPhe(3-Cl-4-CF3)]P[Ac5c][NMeGly(cPent)][NMeD]-Morpholide; lactam N-11) | 7.1 | C (A compound having a KD ratio of 0.1 or more and less than 3 is denoted as C) | B (a compound having 3 or more and less than 10 is denoted as B) | – | – | – | – |

Now from value to compound, other results behind:

| IC50 [1] [nM] | SMILES | NRAS/KRAS (ratio of KD value for NRAS to KD value for KRAS) [2] | HRAS/KRAS (ratio of KD value for HRAS to KD value for KRAS) [3] | NRAS/KRAS (ratio of KD value with respect to NRAS to KD value with respect to KRAS) [2] | HRAS/KRAS (ratio of KD value with respect to HRAS to KD value with respect to KRAS) [3] | NRAS/KRAS (ratio of KD value for NRAS to KD value for KRAS) ([2]; KD ratio class) | HRAS/KRAS (ratio of KD value for HRAS to KD value for KRAS) ([3]; KD ratio class) |
| --- | --- | --- | --- | --- | --- | --- | --- |
| 126 | CCCN1C(=O)CN(C)C(=O)[C@@H]2CCN2C(=O)[C@H]([C@@H](C)CC)NC(=O)[C@@H]2CCCCCN2C(=O)C[C@@H](C(=O)N2CCOCC2)N(C)C(=O)[C@H](C2CCCC2)N(C)C(=O)C2(CCCC2)NC(=O)[C@@H]2CCCN2C(=O)[C@H](CCc2ccc(C(F)(F)F)c(Cl)c2)NC(=O)CN(C)C(=O)[C@@H]1Cc1ccc(C(F)(F)F)cc1 [PP0302] ([hPip]I[Aze][Sar][NPrPhe(4-CF3)][Sar][hPhe(3-Cl-4-CF3)]P[Ac5c][NMeGly(cPent)][NMeD]-Morpholide; lactam N-11) | B (a compound having 3 or more and less than 10 is denoted as B) | C (A compound having a KD ratio of 0.1 or more and less than 3 is denoted as C) | – | – | – | – |
| 5.4 | CC[C@H](C)[C@@H]1NC(=O)[C@H](CC(C)C)N(C)C(=O)C[C@@H](C(=O)N2CCOCC2)N(C)C(=O)[C@H](C2CCCC2)N(C)C(=O)C2(CCCC2)NC(=O)[C@@H]2CCCN2C(=O)[C@H](CCc2ccc(C(F)(F)F)c(Cl)c2)NC(=O)CN(C)C(=O)[C@H](Cc2ccc(C)cc2)N2CC=CC[C@@H](C2=O)N(C)C(=O)CN(C)C1=O [PP0460] | – | – | C (A compound having a KD ratio of 0.1 or more and less than 3 is denoted as C) | C (A compound having a KD ratio of 0.1 or more and less than 3 is denoted as C) | – | – |
| 2.1 | CCCN1C(=O)[C@@H]2CCN2C(=O)[C@@H]2CCCCN2C(=O)[C@H]([C@@H](C)CC)NC(=O)[C@H](CC(C)C)N(C)C(=O)C[C@@H](C(=O)N2CCOCC2)N(C)C(=O)[C@H](C2CCCC2)N(C)C(=O)C2(CCCC2)NC(=O)[C@@H]2CCCN2C(=O)[C@H](CCc2ccc(C(F)(F)F)c(Cl)c2)NC(=O)CN(C)C(=O)[C@@H]1Cc1ccc(C)cc1 [PP0070] ([NMeL]I[Pip][Aze][NPrPhe(4-Me)][Sar][hPhe(3-Cl-4-CF3)]P[Ac5c][NMeGly(cPent)][NMeD]-Morpholide; lactam N-11) | C (A compound having a KD ratio of 0.1 or more and less than 3 is denoted as C) | B (a compound having 3 or more and less than 10 is denoted as B) | – | – | – | – |
| 205 | CCCN1C(=O)CN(C)C(=O)[C@@H]2CCN2C(=O)[C@H]([C@@H](C)CC)NC(=O)[C@H](CC(C)C)N(C)C(=O)C[C@@H](C(=O)N2CCOCC2)N(C)C(=O)[C@H](C2CCCC2)N(C)C(=O)C2(CCCC2)NC(=O)[C@@H]2CCN2C(=O)[C@H](CCc2ccc(C(F)(F)F)c(Cl)c2)NC(=O)CN(C)C(=O)[C@@H]1Cc1ccc(C(F)(F)F)cc1 [PP0307] ([NMeL]I[Aze][Sar][NPrPhe(4-CF3)][Sar][hPhe(3-Cl-4-CF3)][Aze][Ac5c][NMeGly(cPent)][NMeD]-Morpholide; lactam N-11) | B (a compound having 3 or more and less than 10 is denoted as B) | B (a compound having 3 or more and less than 10 is denoted as B) | – | – | – | – |
| 53.6 | CC[C@H](C)[C@@H]1NC(=O)[C@H](Cc2ccccc2)N(C)C(=O)C[C@@H](C(=O)N2CCOCC2)N(C)C(=O)[C@H](C2CCCC2)N(C)C(=O)C2(CCCC2)NC(=O)[C@@H]2CCCN2C(=O)[C@H](CCc2ccc(C(F)(F)F)c(Cl)c2)NC(=O)CN(C)C(=O)[C@H](Cc2ccc(F)cc2)N2CCCCC[C@@H](C2=O)N(C)C(=O)CN(C)C1=O [PP0961] | B (a compound having 3 or more and less than 10 is denoted as B) | B (a compound having 3 or more and less than 10 is denoted as B) | – | – | – | – |
| 349 | CCCN1C(=O)CN(C)C(=O)[C@@H]2CCN2C(=O)[C@H](CC)NC(=O)[C@H](CC(C)C)N(C)C(=O)C[C@@H](C(=O)N2CCOCC2)N(C)C(=O)[C@H](C2CCCC2)N(C)C(=O)C2(CCCC2)NC(=O)[C@@H]2CCCN2C(=O)[C@H](CCc2ccc(C(F)(F)F)c(Cl)c2)NC(=O)CN(C)C(=O)[C@@H]1Cc1ccc(C(F)(F)F)cc1 [PP0303] ([NMeL][Abu][Aze][Sar][NPrPhe(4-CF3)][Sar][hPhe(3-Cl-4-CF3)]P[Ac5c][NMeGly(cPent)][NMeD]-Morpholide; lactam N-11) | B (a compound having 3 or more and less than 10 is denoted as B) | B (a compound having 3 or more and less than 10 is denoted as B) | – | – | – | – |
